Experimental findings from patent EP4775580A1, “COMPOUND, PHARMACEUTICAL COMPOSITION COMPRISING SAME, AND USE THEREOF” (Euregen Biopharma Co., Ltd., priority 2023, dated 2025) are described below.

Each structure is given as a SMILES string. Changes are numbered by the printed parent chain.

In one assay the target is T1, Menin-T349M (Homo sapiens, UniProt O00255, T344M).
T1 sequence (O00255 1-615 isoform O00255-1 T349M): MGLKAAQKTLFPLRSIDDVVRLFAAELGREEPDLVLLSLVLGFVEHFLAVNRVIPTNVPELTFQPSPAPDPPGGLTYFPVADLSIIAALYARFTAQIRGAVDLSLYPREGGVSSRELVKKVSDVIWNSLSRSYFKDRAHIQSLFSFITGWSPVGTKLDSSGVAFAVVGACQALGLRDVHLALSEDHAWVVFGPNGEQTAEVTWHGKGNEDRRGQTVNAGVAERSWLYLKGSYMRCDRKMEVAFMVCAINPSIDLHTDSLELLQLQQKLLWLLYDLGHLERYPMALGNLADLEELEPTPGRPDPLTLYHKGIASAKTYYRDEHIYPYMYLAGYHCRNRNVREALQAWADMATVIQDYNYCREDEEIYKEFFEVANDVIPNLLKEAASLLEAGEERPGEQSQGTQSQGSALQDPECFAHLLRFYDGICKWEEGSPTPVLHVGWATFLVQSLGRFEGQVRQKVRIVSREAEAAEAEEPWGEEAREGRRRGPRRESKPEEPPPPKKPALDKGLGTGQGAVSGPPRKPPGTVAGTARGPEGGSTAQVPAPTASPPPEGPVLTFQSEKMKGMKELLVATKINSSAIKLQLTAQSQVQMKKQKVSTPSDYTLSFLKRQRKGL
As to the kind of experiment: Fluorescence polarization assay of Menin binding to MLL peptide, T349M mutant. To be noted: FP, 8 nM Menin, 4 nM MLL peptide. The text has this:
(§1) • 1. Objective: To evaluate the inhibitory activity of compounds against wild-type Menin protein (Menin-WT) and its mutant variants (Menin-M327V, Menin-M327I, Menin-T349M, Menin-S160T, Menin-S160C, Menin-G331R, and Menin-G331D). • 2. Experimental Principle: The experiment employed fluorescence polarization (FP) to detect the binding of wild-type Menin protein and its mutant variants to MLL peptide. In the absence of inhibitors, binding of wild-type Menin protein and its mutant variants to MLL peptide generates a high FP signal; upon addition of inhibitors, the binding between Menin proteins and MLL peptide is disrupted, resulting in a low FP signal. • 3. Experimental Materials: Final concentration of wild-type Menin protein and its mutant variants: 8 nM; final concentration of MLL peptide: 4 nM. Assay buffer: 50 mM Tris-HCl (pH 8.0), 120 mM NaCl, 0.005% CA-630, 2 mM DTT. • 4. […] The plate was centrifuged at 1000 rpm for 60 seconds. Subsequently, 10 µL of MLL peptide was added to each assay well. The plate was centrifuged at 1000 rpm for 60 seconds and sealed with a sealing membrane. After incubation at 23°C for 60 minutes, the plate was read using a PerkinElmer Envision reader. Data Analysis: [formula]
(§2) Curve fitting: XLFIT software was used for curve fitting, employing a four-parameter logistic model with percent inhibition versus log(compound concentration) as variables.

In another assay the target is T2, Menin-G331R (Homo sapiens, UniProt O00255, G326R).
T2 sequence (O00255 1-615 isoform O00255-1 G331R): T1 sequence (O00255 1-615 isoform O00255-1 T349M) with G331R, M349T
The experiment in a line: Fluorescence polarization assay of Menin binding to MLL peptide, G331R mutant. The conditions noted are these: FP, 8 nM Menin, 4 nM MLL peptide.
Source text: as §1, §2
(In general: In fluorescence polarisation assays a small probe gives low polarisation when free and higher when bound to something large.)

Another assay concerns HL-60 cells. As to the kind of experiment: Antiproliferative activity, CellTiter-Glo, 7 days (Test Example 2), HL-60. In kind it is cell-based. The conditions noted are these: Homo sapiens, 168 h, HL-60 cells (no Menin-MLL fusion), 7 days incubation. The source says:
[0134] 1. Experimental Principle: MV-4-11, Molm-13, and OCI-AML-3 cells are human hematologic tumor cell lines harboring the Menin-MLL fusion. HL-60 is a wild-type human hematologic tumor cell line without Menin-MLL fusion. […] 2. Experimental Materials: MV-4-11, Molm-13, OCI-AML-3, and HL-60 cells were all purchased from Cobioer; CellTiter-Glo® was purchased from Promega (Cat. #G7571); RPMI-1640 was purchased from Viva Cell (Cat. #C3010-0500); IMDM was purchased from Viva Cell (Cat. #C3040-0500); fetal bovine serum (FBS) was purchased from Biosera (Cat. #FB-1058/500); penicillin-streptomycin was purchased from BasalMedia (Cat. #S110JV); 0.25% Trypsin-EDTA was purchased from BasalMedia (Cat. #S310KJ); dimethyl sulfoxide (DMSO) was purchased from Sinopharm (Cat. #30072418); 96-well plates were purchased from Corning (Cat. #3610); incubator was obtained from PHCbi (Model: MCO-18AC); inverted microscope was obtained from Mingmei (Cat. #MI52-0); automated cell counter was obtained from BodBoge (Model: JSY-SC-031N); microplate reader was obtained from PerkinElmer (Model: Envision); data processing software: GraphPad Prism 8.0. 3. Experimental Methods: Four cell lines in logarithmic growth phase were resuspended in their respective growth media (MV-4-11: IMDM + 20% FBS; Molm-13: RPMI-1640 + 20% FBS; OCI-AML-3: RPMI-1640 + 20% FBS; HL-60: RPMI-1640 + 10% FBS) and diluted to target densities (12,500, 6,250, 12,500, and 12,500/mL, respectively). The cell suspensions were seeded into 96-well plates at 80 µL per well and incubated overnight at 37°C in a 5% CO2 incubator. Culture medium served as the background control. Test compounds were dissolved in DMSO to prepare 10 mmol/L stock solutions. The stock solutions were first diluted to 2 mmol/L with DMSO, followed by 4-fold serial dilutions to generate 10 concentrations. From each concentration, 2 µL was diluted with 78 µL growth medium. […] After incubation at room temperature for 10 minutes, luminescence values were read using the EnVision microplate reader, and IC50 values were calculated using GraphPad Prism 8.0 software. […]

One may read the IC50 as the concentration that inhibits the measured activity by half. A high value points to weaker potency in that assay. Take `CCN(C(=O)c1cc(F)ccc1N1CCN([C@@H]2CCN([C@H](CCCN(C)CCOC)C(C)C)C2)c2ncncc21)C(C)C` [Example 3]: the IC50 at Menin-T349M is 46.7 nM; on Menin-G331R, 36.7 nM; in the assay with HL-60 cells it was greater than 10000 nM.
The matching figures for `CCN(C(=O)c1cc(F)ccc1Oc1cncnc1N1CC2(CCN(C[C@H]3CC[C@H](NS(=O)(=O)CC)CC3)CC2)C1)C(C)C` [SNDX-5613, revumenib]: 271 nM, 101 nM and greater than 10000 nM.
